From US20230212180A1, “SUBSTITUTED PYRAZINE COMPOUND, PHARMACEUTICAL COMPOSITION COMPRISING SAME, AND USE THEREOF” (Sichuan Kelun-Biotech Biopharmaceutical Co., Ltd., priority 2020, published 2023)

Columns and labels:
[1] = test system: KYSE-520 cell (human esophageal squamous cell carcinoma cell); assay: Inhibition of the proliferation activity of KYSE-520 cell (CellTiter-Glo); assay type: cell-based; conditions: 120 h, KYSE-520 cell proliferation, 5 days
Summary of the method: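 KYSE-520 cells, 1500/well, adhered overnight, then exposed to compound in complete medium with 10% FBS for 5 days at 37° C, 5% CO2. Viability by CellTiter-Glo luminescence, blank-corrected against cell-free medium and normalised to vehicle. IC50 from four-parameter logistic fit.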

[2] = target: T1, recombinant full-length human PTPN11 (SHP2) (Homo sapiens, UniProt Q06124); assay: Inhibition of in vitro enzyme activity of SHP2 (DiFMUP fluorescence endpoint assay); assay type: biochemical; conditions: SHP2 0.5 nM, DiFMUP 200 μM, IRS-1 0.5 μM; 60 min incubation
T1 construct: recombinant full-length human PTPN11 (SHP2), active (SignalChem); purchased SignalChem
T1 sequence (Q06124 1-593): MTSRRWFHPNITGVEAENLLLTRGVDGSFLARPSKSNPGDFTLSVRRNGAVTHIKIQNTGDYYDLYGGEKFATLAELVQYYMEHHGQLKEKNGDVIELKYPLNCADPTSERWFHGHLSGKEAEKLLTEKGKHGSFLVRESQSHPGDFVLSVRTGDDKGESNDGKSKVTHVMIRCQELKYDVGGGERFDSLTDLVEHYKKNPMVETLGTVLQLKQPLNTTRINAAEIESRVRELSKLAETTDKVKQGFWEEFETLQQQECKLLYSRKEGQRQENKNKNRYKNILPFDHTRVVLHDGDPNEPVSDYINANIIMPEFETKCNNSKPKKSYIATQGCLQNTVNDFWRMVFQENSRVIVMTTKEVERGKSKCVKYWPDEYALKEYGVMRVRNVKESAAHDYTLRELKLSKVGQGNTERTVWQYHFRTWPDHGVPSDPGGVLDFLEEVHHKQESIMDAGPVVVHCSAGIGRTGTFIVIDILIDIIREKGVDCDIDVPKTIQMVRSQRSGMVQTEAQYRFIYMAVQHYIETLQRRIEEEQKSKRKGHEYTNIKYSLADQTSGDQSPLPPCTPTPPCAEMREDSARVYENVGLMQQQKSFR
Summary of the method: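 Full-length human SHP2 (0.5 nM) with 0.5 μM IRS1 bis-phosphopeptide preincubated with compound 60 min at room temperature, pH 7.2 HEPES with 5 mM DTT. DiFMUP (200 μM) reacted 30 min, stopped with bpv, fluorescence ex 340/em 450 nm. IC50 by four-parameter logistic fit.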

Structure (SMILES)	IC50 [1]	IC50 [2]
C[C@@H]1OCC2(CCN(c3ncc(Sc4ccnc(N5CC(CO)(CF)C5)c4Cl)nc3CO)CC2)[C@@H]1N [Example 42, (3-((3S,4S)-4-amino-3-methyl-2-oxa-8-azaspiro[4.5]decan-8-yl)-6-(3-chloro-2-(3-(fluoromethyl)-3-(hydroxymethyl)azetidin-1-yl)pyridin-4-ylthio)pyrazin-2-yl)methanol]	100 nM	10.2 nM
CC(C)(O)C1CN(c2nccc(Sc3cnc(N4CCC5(CC4)Cc4ncccc4[C@H]5N)c(CO)n3)c2Cl)C1 [Example 43, (S)-2-(1-(4-(5-(5-amino-5,7-dihydrospiro[cyclopenta[b]pyridine-6,4′-piperidin]-1′-yl)-6-(hydroxymethyl)pyrazin-2-ylthio)-3-chloropyridin-2-yl)azetidin-3-yl)propan-2-ol]	40 nM	2.6 nM
CC(C)(O)C1CN(c2nccc(Sc3ncc(N4CCC5(CC4)Cc4ncccc4[C@H]5N)nc3N)c2Cl)C1 [Example 46, (S)-2-(1-(4-(3-amino-5-(5-amino-5,7-dihydrospiro[cyclopenta[b]pyridine-6,4′-piperidin]-1′-yl)pyrazin-2-ylthio)-3-chloropyridin-2-yl)azetidin-3-yl)propan-2-ol]	70 nM	2.6 nM
C[C@@H]1OCC2(CCN(c3ncc(Sc4ccnc(N5CC(C#N)(CO)C5)c4Cl)nc3CO)CC2)[C@@H]1N [Example 47, 1-(4-(5-((3S,4S)-4-amino-3-methyl-2-oxa-8-azaspiro[4.5]decan-8-yl)-6-(hydroxymethyl)pyrazin-2-ylthio)-3-chloropyridin-2-yl)-3-(hydroxymethyl)azetidine-3-carbonitrile]	40 nM	3.2 nM
